Measurements published in patent US20090197948A1, “Skin External Preparation” (Shiseido Co., Ltd., priority 2006, published 2009).

Tested on: skin of the forearms of 10 panelists (stratum corneum)
Assay: Testing by Conductance Measurement (rate of skin conductance change)
Type: in vivo, human
Details: for conductance evaluation, 30 minutes / conductance evaluation, 60 minutes / conductance evaluation, 120 minutes: Table 1, 10% aqueous solution; for conductance evaluation, 30 minutes: 30 minutes after application; for conductance evaluation, 60 minutes: 60 minutes after application; for conductance evaluation, 120 minutes: 120 minutes after application
Experimental: “Testing by Conductance Measurement” The skin conductance was measured before the application and after 30 minutes, 60 minutes, and 120 minutes of the application on the forearms of 10 panelists. From the rate of change, the moisturizing effect was evaluated. The rate of change of the skin conductance is determined by the following equation (III), and the influences on the water-absorbing property and the moisture-retention ability of the stratum corneum can be investigated. If the rate of change is small, it can be estimated that there is an increase in the water content in the stratum corneum and that the moisturizing effect is high. Rate of conductance change=(conductance before application)/(conductance after application) Equation (III) The evaluation criteria for the “Testing by Conductance Measurement” are as follows. ⊚: Average of the rate of conductance change of 10 panelists: 0 or higher and lower than 0.1 ◯: Average of the rate of conductance change of 10 panelists: 0.1 or higher and lower than 0.2 Δ: Average of the rate of conductance change of 10 panelists: 0.2 or higher and lower than 0.5 X: Average of the rate of conductance change of 10 panelists: 0.5 or higher Initially, the present inventors evaluated the conductance, based on the above-described criteria, for respective 10% aqueous solutions of various moisturizers.

Compound | conductance evaluation, 30 minutes | conductance evaluation, 60 minutes | conductance evaluation, 120 minutes | Conductance measurement evaluation (Table 7, 5 % alone in ion exchanged water 95 %)
CC(O)CCO (stereo not shown) [1,3-butylene glycol] | Δ (Average of the rate of conductance change of 10 panelists: 0.2 or higher and lower than 0.5) | Δ (Average of the rate of conductance change of 10 panelists: 0.2 or higher and lower than 0.5) | Δ (Average of the rate of conductance change of 10 panelists: 0.2 or higher and lower than 0.5) | 
OCC(O)CO [glycerin] | ⊚ (Average of the rate of conductance change of 10 panelists: 0 or higher and lower than 0.1) | ◯ (Average of the rate of conductance change of 10 panelists: 0.1 or higher and lower than 0.2) | ◯ (Average of the rate of conductance change of 10 panelists: 0.1 or higher and lower than 0.2) | Δ (Average of the rate of conductance change of 10 panelists: 0.2 or higher and lower than 0.5)
